Source: patent publication US20160018400A1, “DIAGNOSTIC AND PROGNOSTIC BIOMARKERS FOR PROSTATE CANCER AND OTHER DISORDERS” (CANCER RESEARCH TECHNOLOGY LIMITED, priority 2013, published 2016)

How the values were obtained:
VPS13A = VPS13A protein expression in LNCaP cells after calcium modifiers (SDS-PAGE / western blot); assay type: cell-based; settings: LNCaP cells treated for 8 hours with 10 μM; lysates probed for VPS13A and tubulin
Method: Non-targeting control LNCaP cells or siVPS13A cells were treated for 8 hours with 10 μM BAPTA (B), calcimycin (Cal) or control (C). Protein lysates were separated by SDS-PAGE and probed for VPS13A and tubulin.
Cells were fixed and stained as before using anti-VPS13A antibody (1:50, Human Protein Atlas) and LAMP2 antibody (1:500, BD Biosciences) (8). Cells were imaged using Alexafluor 594 and 488 secondary antibodies (Molecular Probes) and mounted with DAPI. All images were obtained using a Nikon Eclipse confocal microscope using a 100× objective. For calcium modifying experiments, LNCaP cells were grown as before to ˜50% confluence before being treated for 8 hours with 10 μM of the calcium ionophore, calcimycin (Invitrogen) or 10 μM of the calcium chelating agent 1,2-bis(o-aminophenoxy)ethane-N,N,N′,N′-tetraacetic acid (BAPTA) (Invitrogen) (Whitaker et al., 2007).
Protein lysates were produced as described (8) and separated by SDS-PAGE before blotting for VPS13A (1:1000, Human Protein Atlas), FAK (1:1000, Cell Signaling Technology), pTyr397-FAK (1:1000, Cell Signaling Technology) or tubulin (1:2000, Abcam).

LNCaP cells = test: Confocal microscopy of VPS13A vesicle association/fusion with LAMP2-positive lysosomes; assay type: cell-based
Method: FIG. […] The cells were then fixed and stained for LAMP2 and VPS13A. Using the 100× lens, the number of lysosomes in 10 fields of view were counted. Then the number of VPS13A fusion events was counted in the same field of view. A fusion event was classed as a VPS13A vesicle touching or integrated into a LAMP2 positive lysosome. *Data are shown normalised to the number of lysosomes in each field of view. P-values were calculated using a Mann-Whitney 2-tailed t-test.
Cells were fixed and stained as before using anti-VPS13A antibody (1:50, Human Protein Atlas) and LAMP2 antibody (1:500, BD Biosciences) (8). Cells were imaged using Alexafluor 594 and 488 secondary antibodies (Molecular Probes) and mounted with DAPI. All images were obtained using a Nikon Eclipse confocal microscope using a 100× objective. […]

| Structure (SMILES) | intracellular levels of VPS13A (VPS13A protein expression) (VPS13A) | VPS13A vesicle integration into the lysosome membrane (LNCaP cells; cells treated with bafilomycin, LAMP2 staining) | number of VPS13A vesicles that associated with lysosomes (fusion events, normalised to number of lysosomes) (LNCaP cells; LNCaP cells, LAMP2 and VPS13A staining, p=0.0004) |
| --- | --- | --- | --- |
| O=C(O)CN(CC(=O)O)c1ccccc1OCCOc1ccccc1N(CC(=O)O)CC(=O)O [BAPTA, 1,2-bis(o-aminophenoxy)ethane-N,N,N′,N′-tetraacetic acid] | no significant change in VPS13A expression | – | – |
| CO/C1=C\C(C)=C\[C@@H](C)[C@@H](O)[C@@H](C)C/C(C)=C/C=C/[C@H](OC)[C@@H]([C@@H](C)[C@@H](O)[C@H](C)[C@@]2(O)C[C@@H](O)[C@H](C)[C@@H](C(C)C)O2)OC1=O [bafilomycin] | – | VPS13A vesicles are seen integrated into the lysosome membrane | – |
| CNc1ccc2oc(C[C@H]3O[C@@]4(CC[C@H]3C)O[C@H]([C@H](C)C(=O)c3ccc[nH]3)[C@H](C)C[C@H]4C)nc2c1C(=O)O [calcimycin] | increase in the intracellular levels of VPS13A | – | highly significant decrease |
